Test results reported in the supplement of paper PMC10307832.

Legend:
Assay in all cases: relative viability (nuclei count vs DMSO), 5 days (fraction); higher = more cells survive
NCI-H358 = tested on: NCI-H358
Method in brief: (§1)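 Values are medians from duplicate plates. Each reflects relative viability, defined as the nuclei count of treated wells over that of vehicle wells. Lung cancer cell lines in 1536-well plates were pin-tool dosed one day after seeding with one drug alone or with a fixed anchor-drug dose plus five library-drug doses (not always all listed) in √10 steps, then fixed, stained and imaged at 4× after 5 days.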

NCI-H1792 = tested on: NCI-H1792
Method in brief: as §1

NCI-H460 = tested on: NCI-H460
Method in brief: as §1

HCC-15 = tested on: HCC-15
Method in brief: as §1

NCI-H2228 = tested on: NCI-H2228
Method in brief: as §1

LC-2-ad = tested on: LC-2-ad
Method in brief: as §1

NCI-H1755 = tested on: NCI-H1755
Method in brief: as §1

NCI-H2347 = tested on: NCI-H2347
Method in brief: as §1

RERF-LC-KJ = tested on: RERF-LC-KJ
Method in brief: as §1

NCI-H1915 = tested on: NCI-H1915
Method in brief: as §1

PC-3 [JPC-3] = tested on: PC-3 [JPC-3]
Method in brief: as §1

LOU-NH91 = tested on: LOU-NH91
Method in brief: as §1

NCI-H1734 = tested on: NCI-H1734
Method in brief: as §1

NCI-H2126 = tested on: NCI-H2126
Method in brief: as §1

NCI-H647 = tested on: NCI-H647
Method in brief: as §1

SW 1573 = tested on: SW 1573
Method in brief: as §1

HCC-78 = tested on: HCC-78
Method in brief: as §1

SK-LU-1 = tested on: SK-LU-1
Method in brief: as §1

HOP-62 = tested on: HOP-62
Method in brief: as §1

A-427 = tested on: A-427
Method in brief: as §1

LXF-289 = tested on: LXF-289
Method in brief: as §1

NCI-H1975 = tested on: NCI-H1975
Method in brief: as §1

Clc1ccc(Nc2nnc(Cc3ccncc3)c3ccccc23)cc1 [Vatalanib] + C[C@]1(O)C[C@@H](c2nc(-c3ccc4ccc(-c5ccccc5)nc4c3)c3c(N)nccn32)C1 [Linsitinib] (partner 1 µM)
relative viability (NCI-H358; first compound 0.04 µM): 0.898 | relative viability (NCI-H358; first compound 0.1265 µM): 0.718 | relative viability (NCI-H358; first compound 0.4 µM): 0.917 | relative viability (NCI-H358; first compound 1.265 µM): 0.699 | relative viability (NCI-H358; first compound 4 µM): 0.578 | relative viability (NCI-H1792; first compound 0.04 µM): 0.465 | relative viability (NCI-H1792; first compound 0.1265 µM): 0.494 | relative viability (NCI-H1792; first compound 0.4 µM): 0.506 | relative viability (NCI-H1792; first compound 1.265 µM): 0.493 | relative viability (NCI-H1792; first compound 4 µM): 0.515 | relative viability (NCI-H460; first compound 0.04 µM): 1.01 | relative viability (NCI-H460; first compound 0.1265 µM): 0.684 | relative viability (NCI-H460; first compound 0.4 µM): 0.732 | relative viability (NCI-H460; first compound 1.265 µM): 0.699 | relative viability (NCI-H460; first compound 4 µM): 0.711 | relative viability (HCC-15; first compound 0.04 µM): 0.937 | relative viability (HCC-15; first compound 0.1265 µM): 0.911 | relative viability (HCC-15; first compound 0.4 µM): 0.902 | relative viability (HCC-15; first compound 1.265 µM): 0.87 | relative viability (HCC-15; first compound 4 µM): 0.873 | relative viability (NCI-H2228; first compound 0.04 µM): 0.825 | relative viability (NCI-H2228; first compound 0.1265 µM): 0.508 | relative viability (NCI-H2228; first compound 0.4 µM): 0.83 | relative viability (NCI-H2228; first compound 1.265 µM): 0.664 | relative viability (NCI-H2228; first compound 4 µM): 0.761 | relative viability (LC-2-ad; first compound 0.04 µM): 0.916 | relative viability (LC-2-ad; first compound 0.1265 µM): 0.799 | relative viability (LC-2-ad; first compound 0.4 µM): 0.971 | relative viability (LC-2-ad; first compound 1.265 µM): 0.841 | relative viability (LC-2-ad; first compound 4 µM): 0.883 | relative viability (NCI-H1755; first compound 0.04 µM): 0.984 | relative viability (NCI-H1755; first compound 0.1265 µM): 1.04 | relative viability (NCI-H1755; first compound 0.4 µM): 0.995 | relative viability (NCI-H1755; first compound 1.265 µM): 0.991 | relative viability (NCI-H1755; first compound 4 µM): 0.919 | relative viability (NCI-H2347; first compound 0.04 µM): 1.01 | relative viability (NCI-H2347; first compound 0.1265 µM): 0.908 | relative viability (NCI-H2347; first compound 0.4 µM): 0.976 | relative viability (NCI-H2347; first compound 1.265 µM): 0.901 | relative viability (NCI-H2347; first compound 4 µM): 0.942 | relative viability (RERF-LC-KJ; first compound 0.04 µM): 0.932 | relative viability (RERF-LC-KJ; first compound 0.1265 µM): 0.875 | relative viability (RERF-LC-KJ; first compound 0.4 µM): 0.933 | relative viability (RERF-LC-KJ; first compound 1.265 µM): 0.762 | relative viability (RERF-LC-KJ; first compound 4 µM): 0.812 | relative viability (NCI-H1915; first compound 0.04 µM): 1.06 | relative viability (NCI-H1915; first compound 0.1265 µM): 1.09 | relative viability (NCI-H1915; first compound 0.4 µM): 1.09 | relative viability (NCI-H1915; first compound 1.265 µM): 1.04 | relative viability (NCI-H1915; first compound 4 µM): 1.09 | relative viability (PC-3 [JPC-3]; first compound 0.04 µM): 0.986 | relative viability (PC-3 [JPC-3]; first compound 0.1265 µM): 1.01 | relative viability (PC-3 [JPC-3]; first compound 0.4 µM): 0.957 | relative viability (PC-3 [JPC-3]; first compound 1.265 µM): 0.824 | relative viability (PC-3 [JPC-3]; first compound 4 µM): 0.932 | relative viability (LOU-NH91; first compound 0.04 µM): 1.02 | relative viability (LOU-NH91; first compound 0.1265 µM): 0.921 | relative viability (LOU-NH91; first compound 0.4 µM): 0.757 | relative viability (LOU-NH91; first compound 1.265 µM): 0.913 | relative viability (LOU-NH91; first compound 4 µM): 0.89 | relative viability (NCI-H1734; first compound 0.04 µM): 0.971 | relative viability (NCI-H1734; first compound 0.1265 µM): 0.866 | relative viability (NCI-H1734; first compound 0.4 µM): 1.03 | relative viability (NCI-H1734; first compound 1.265 µM): 0.886 | relative viability (NCI-H1734; first compound 4 µM): 0.859 | relative viability (NCI-H2126; first compound 0.04 µM): 0.669 | relative viability (NCI-H2126; first compound 0.1265 µM): 0.72 | relative viability (NCI-H2126; first compound 0.4 µM): 0.669 | relative viability (NCI-H2126; first compound 1.265 µM): 0.729 | relative viability (NCI-H2126; first compound 4 µM): 0.739 | relative viability (NCI-H647; first compound 0.04 µM): 1.02 | relative viability (NCI-H647; first compound 0.1265 µM): 1.14 | relative viability (NCI-H647; first compound 0.4 µM): 1.2 | relative viability (NCI-H647; first compound 1.265 µM): 1.21 | relative viability (NCI-H647; first compound 4 µM): 1.09 | relative viability (SW 1573; first compound 0.04 µM): 1 | relative viability (SW 1573; first compound 0.1265 µM): 0.791 | relative viability (SW 1573; first compound 0.4 µM): 0.781 | relative viability (SW 1573; first compound 1.265 µM): 0.802 | relative viability (SW 1573; first compound 4 µM): 0.723 | relative viability (HCC-78; first compound 0.04 µM): 0.507 | relative viability (HCC-78; first compound 0.1265 µM): 0.467 | relative viability (HCC-78; first compound 0.4 µM): 0.527 | relative viability (HCC-78; first compound 4 µM): 0.448 | relative viability (SK-LU-1; first compound 0.04 µM): 1.45 | relative viability (SK-LU-1; first compound 0.1265 µM): 1.13 | relative viability (SK-LU-1; first compound 0.4 µM): 1.28 | relative viability (SK-LU-1; first compound 1.265 µM): 1.04 | relative viability (SK-LU-1; first compound 4 µM): 1.03 | relative viability (HOP-62; first compound 0.04 µM): 0.785 | relative viability (HOP-62; first compound 0.4 µM): 1.02 | relative viability (HOP-62; first compound 1.265 µM): 0.922 | relative viability (HOP-62; first compound 4 µM): 0.876 | relative viability (A-427; first compound 0.04 µM): 1.15 | relative viability (A-427; first compound 0.1265 µM): 1.1 | relative viability (A-427; first compound 0.4 µM): 1.13 | relative viability (A-427; first compound 1.265 µM): 1.06 | relative viability (A-427; first compound 4 µM): 1.1 | relative viability (LXF-289; first compound 0.04 µM): 1.04 | relative viability (LXF-289; first compound 0.1265 µM): 0.947 | relative viability (LXF-289; first compound 0.4 µM): 0.957 | relative viability (LXF-289; first compound 1.265 µM): 0.888 | relative viability (LXF-289; first compound 4 µM): 0.919 | relative viability (NCI-H1975; first compound 0.04 µM): 0.889 | relative viability (NCI-H1975; first compound 0.1265 µM): 0.92 | relative viability (NCI-H1975; first compound 0.4 µM): 1.1 | relative viability (NCI-H1975; first compound 1.265 µM): 0.834 | relative viability (NCI-H1975; first compound 4 µM): 0.86
